According to PMC12951562, “SH2scan: Mapping SH2 Domain-Ligand Binding Selectivity for Inhibitors and Degraders” (Journal of Medicinal Chemistry, 2026):
Like-named read-outs stand apart in the source and are kept apart here. Non-standard residues stand in square brackets, D forms with d. Residues, ends and D or L forms follow the SMILES beside them. *: point of attachment. pY = N[C@@H](Cc1ccc(OP(=O)(O)O)cc1)C(=O)O; Caffeoyl = O=C(/C=C/c1ccc(O)c(O)c1)*

Key:
CBL = target: T1, CBL (Homo sapiens, UniProt P22681); experiment: biochemical; format: binding
T1 construct: the DNA-tagged SH2 domain concentrations used in this study were <0.1 nM; made in house; host or cells: HEK293 (transient transfection; unpurified extract)
T1 sequence (P22681 249-351 limits assumed): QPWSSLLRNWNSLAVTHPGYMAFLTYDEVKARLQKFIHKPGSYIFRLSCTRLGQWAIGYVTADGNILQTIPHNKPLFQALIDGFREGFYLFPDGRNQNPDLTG

PTPN11(SH2dom.C-term.) = target: T2, PTPN11(SH2dom.C-term.) (Homo sapiens, UniProt Q06124); experiment: biochemical; format: binding; conditions: for percent of DMSO vehicle control: primary screen, 10 μM
T2 construct: SH2dom.C-term. denotes SH2 domain closest to C-terminus of protein; made in house; host or cells: HEK293 (transient transfection, unpurified extract)
T2 sequence (Q06124 112-216 limits assumed): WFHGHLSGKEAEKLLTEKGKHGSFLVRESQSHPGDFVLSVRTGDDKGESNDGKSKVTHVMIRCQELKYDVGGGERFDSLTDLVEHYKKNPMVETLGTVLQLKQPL

SHIP2 = target: T3, SHIP2 (Homo sapiens, UniProt O15357); experiment: biochemical; format: binding; conditions: for remaining activity at 10 µM: read-out: percent of DMSO vehicle control
T3 construct: made in house; host or cells: HEK293 (transient transfection), unpurified extract
T3 sequence (O15357 1-1258): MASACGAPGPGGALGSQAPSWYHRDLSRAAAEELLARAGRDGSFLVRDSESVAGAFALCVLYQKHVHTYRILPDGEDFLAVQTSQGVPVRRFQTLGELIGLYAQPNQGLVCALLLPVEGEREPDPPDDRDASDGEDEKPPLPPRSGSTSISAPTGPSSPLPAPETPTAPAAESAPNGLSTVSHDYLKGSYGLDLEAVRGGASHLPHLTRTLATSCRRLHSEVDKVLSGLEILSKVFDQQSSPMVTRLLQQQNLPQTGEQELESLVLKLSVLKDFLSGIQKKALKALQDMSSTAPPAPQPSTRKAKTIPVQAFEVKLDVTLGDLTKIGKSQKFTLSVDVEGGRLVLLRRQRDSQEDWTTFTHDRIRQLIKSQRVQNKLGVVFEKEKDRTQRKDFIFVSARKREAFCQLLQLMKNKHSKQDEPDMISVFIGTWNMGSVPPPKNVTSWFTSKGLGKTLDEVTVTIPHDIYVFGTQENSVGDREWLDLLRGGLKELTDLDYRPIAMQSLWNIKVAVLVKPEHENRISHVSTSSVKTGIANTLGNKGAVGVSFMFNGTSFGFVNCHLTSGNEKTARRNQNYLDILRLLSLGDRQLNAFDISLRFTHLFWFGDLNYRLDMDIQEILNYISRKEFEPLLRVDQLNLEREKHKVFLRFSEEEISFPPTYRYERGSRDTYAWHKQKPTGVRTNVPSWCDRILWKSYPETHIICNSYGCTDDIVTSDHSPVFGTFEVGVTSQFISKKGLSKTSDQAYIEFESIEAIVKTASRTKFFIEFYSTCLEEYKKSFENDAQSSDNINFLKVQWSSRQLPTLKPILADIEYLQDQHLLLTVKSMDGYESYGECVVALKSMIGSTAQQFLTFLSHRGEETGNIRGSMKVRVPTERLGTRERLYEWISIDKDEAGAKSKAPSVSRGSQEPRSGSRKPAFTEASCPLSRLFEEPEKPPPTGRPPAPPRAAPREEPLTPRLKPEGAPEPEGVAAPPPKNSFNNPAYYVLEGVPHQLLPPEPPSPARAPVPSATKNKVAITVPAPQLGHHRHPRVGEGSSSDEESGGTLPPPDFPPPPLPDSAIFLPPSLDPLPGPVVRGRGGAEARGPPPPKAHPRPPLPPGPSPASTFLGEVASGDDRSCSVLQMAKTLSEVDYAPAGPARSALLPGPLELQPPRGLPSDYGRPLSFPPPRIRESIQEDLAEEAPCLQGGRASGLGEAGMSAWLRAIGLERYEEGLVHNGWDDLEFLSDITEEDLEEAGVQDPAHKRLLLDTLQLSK

[1] = target: T4, STAT3(N647I)-nonphosphorylated (Homo sapiens, UniProt P40763, N647I); experiment: biochemical; format: binding; conditions: for percent of DMSO vehicle control at 10 µM / remaining activity at 10 µM: read-out: percent of DMSO vehicle control
T4 construct: made in house; host or cells: HEK293 (transient transfection), unpurified extract, dephosphorylated by endogenous phosphatases

GRB2 = test system: GRB2; parameters: method as in Gay et al., International Journal of Cancer, 1999; conditions: ELISA; ref Gay et al., International Journal of Cancer, 1999; cited from earlier work
PTPN11 (SH2dom.C-term.) = test system: PTPN11 (SH2dom.C-term.); parameters: method as in Gay et al., International Journal of Cancer, 1999; conditions: ELISA; ref Gay et al., International Journal of Cancer, 1999; cited from earlier work
PTPN11 (SH2dom.N-term.) = test system: PTPN11 (SH2dom.N-term.); parameters: method as in Gay et al., International Journal of Cancer, 1999; conditions: ELISA; ref Gay et al., International Journal of Cancer, 1999; cited from earlier work
SOCS2 = target: SOCS2; parameters: method as in Ramachandran et al., Nature Communications, 2023; conditions: ITC; ref Ramachandran et al., Nature Communications, 2023; cited from earlier work
STAT1 = target: STAT1; parameters: method as in Bai et al., Cancer Cell, 2019; conditions: FP and BLI; ref Bai et al., Cancer Cell, 2019; cited from earlier work
STAT2 = target: STAT2; parameters: method as in Bai et al., Cancer Cell, 2019; conditions: FP and BLI; ref Bai et al., Cancer Cell, 2019; cited from earlier work
STAT3 = target: STAT3; parameters: method as in Bai et al., Cancer Cell, 2019; conditions: FP and BLI; ref Bai et al., Cancer Cell, 2019; cited from earlier work
STAT4 = target: STAT4; parameters: method as in Bai et al., Cancer Cell, 2019; conditions: FP and BLI; ref Bai et al., Cancer Cell, 2019; cited from earlier work
STAT5B = target: STAT5B; parameters: method as in Bai et al., Cancer Cell, 2019; conditions: FP and BLI; ref Bai et al., Cancer Cell, 2019; cited from earlier work
STAT6 [2] = target: STAT6; parameters: method as in Bai et al., Cancer Cell, 2019; conditions: FP and BLI; ref Bai et al., Cancer Cell, 2019; cited from earlier work
STAT6 [3] = test system: STAT6; parameters: method as in Mandal et al., Journal of Medicinal Chemistry, 2015; conditions: FP; ref Mandal et al., Journal of Medicinal Chemistry, 2015; cited from earlier work
STAT6 [4] = target: STAT6; parameters: method as in earlier work; conditions: FP; ref Elumalai et al., Angewandte Chemie International Edition, 2015; cited from earlier work

T4 sequence (P40763 whole entry N647I): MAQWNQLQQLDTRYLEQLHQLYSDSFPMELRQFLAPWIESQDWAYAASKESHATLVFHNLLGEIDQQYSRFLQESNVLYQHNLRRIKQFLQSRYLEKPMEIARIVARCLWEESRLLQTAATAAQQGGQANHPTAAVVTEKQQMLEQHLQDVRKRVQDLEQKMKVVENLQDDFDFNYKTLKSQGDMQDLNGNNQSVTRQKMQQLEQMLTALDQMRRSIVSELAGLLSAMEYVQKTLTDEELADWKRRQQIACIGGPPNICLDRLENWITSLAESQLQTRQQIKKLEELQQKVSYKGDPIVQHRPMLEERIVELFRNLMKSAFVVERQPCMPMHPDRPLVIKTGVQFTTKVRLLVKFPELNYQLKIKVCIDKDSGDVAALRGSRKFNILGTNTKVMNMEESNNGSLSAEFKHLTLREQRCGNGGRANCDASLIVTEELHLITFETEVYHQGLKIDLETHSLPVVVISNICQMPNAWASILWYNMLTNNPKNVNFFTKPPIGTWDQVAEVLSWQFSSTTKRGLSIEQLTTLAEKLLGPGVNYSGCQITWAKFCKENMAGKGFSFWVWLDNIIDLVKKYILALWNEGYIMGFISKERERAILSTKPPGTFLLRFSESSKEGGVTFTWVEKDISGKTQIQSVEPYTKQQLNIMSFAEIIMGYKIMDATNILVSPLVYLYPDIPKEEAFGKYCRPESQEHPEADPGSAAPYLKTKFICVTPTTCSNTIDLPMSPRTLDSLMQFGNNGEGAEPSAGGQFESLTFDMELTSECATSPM

CC[C@H](C)[C@H](NC(=O)[C@H](CCC(=O)O)NC(=O)[C@H](CCC(=O)O)NC(=O)[C@H](Cc1ccc(OP(=O)(O)O)cc1)NC(C)=O)C(=O)N[C@@H](CCC(=O)O)C(N)=O [Ac-pYEEIE-NH2] (Ac-[pY]EEIE-NH2)
percent of DMSO vehicle control (CBL; primary screen, 10 μM): 121.6%
percent of DMSO vehicle control (PTPN11(SH2dom.C-term.)): 133.6%
percent of DMSO vehicle control (SHIP2; primary screen, 10 μM): 62.5±0.8%
percent of DMSO vehicle control ([1]; primary screen, 10 μM): 97.9±8.6%

CC(=O)N[C@@H](Cc1ccc(CP(=O)(O)O)cc1)C(=O)NC1(C(=O)N[C@@H](CC(N)=O)C(=O)NCCCc2c(O)ccc3ccccc23)CCCCC1 [CGP78850]
percent of DMSO vehicle control (PTPN11(SH2dom.C-term.)): 127.5±18.4%
remaining activity at 10 µM (SHIP2): 106 ± 9.3%
percent of DMSO vehicle control at 10 µM [1]: 80.6 ± 2.9%
IC50 (GRB2): 40 nM
IC50 (PTPN11 (SH2dom.C-term.)): > 50000 nM
IC50 (PTPN11 (SH2dom.N-term.)): > 50000 nM

CC[C@H](C)[C@H](NC(=O)[C@H](CCC(=O)O)NC(=O)[C@H](CCC(=O)O)NC(=O)[C@H](Cc1ccc(OP(=O)(O)O)cc1)NC(=O)/C=C/c1ccc(O)c(O)c1)C(=O)N[C@@H](CCC(=O)O)C(=O)O [Caffeic acid-pYEEIE] (Caffeoyl-[pY]EEIE-OH)
Kd (CBL): 11000 nM
percent of DMSO vehicle control (PTPN11(SH2dom.C-term.)): 72.6±1.1%
Kd (SHIP2): 230 ± 120 nM
remaining activity at 10 µM (SHIP2): 0.2%
percent of DMSO vehicle control at 10 µM [1]: 85.3 ± 2.1%

O=C(CCl)Nc1cccc(CNC(=O)[C@H](Cc2ccc(OP(=O)(O)O)cc2)NC(=O)Cc2ccc(F)cc2)c1 [MN551]
percent of DMSO vehicle control (PTPN11(SH2dom.C-term.)): 125.6%
KD (SHIP2; dose-response): No Hit
remaining activity at 10 µM (SHIP2; primary screen, 10 μM): 31.7%
remaining activity at 10 µM ([1]; primary screen, 10 μM): 81.2%
Kd (SOCS2): 2180 nM

NC(=O)CC[C@H](NC(=O)[C@@H]1CC[C@@H]2CCN(C(=O)CCCCCC#Cc3cccc4c3CN(C3CCC(=O)NC3=O)C4=O)C[C@H](NC(=O)c3cc4cc(C(F)(F)P(=O)(O)O)ccc4[nH]3)C(=O)N21)C(=O)NC(c1ccccc1)c1ccccc1 (some centres unmarked) [SD-36]
percent of DMSO vehicle control (PTPN11(SH2dom.C-term.)): 104.4±9.8%
remaining activity at 10 µM (SHIP2): 67.3 ± 2.6%
Kd ([1]; dose-response): 63 ± 23 nM
percent of DMSO vehicle control at 10 µM [1]: 0%
Kd (STAT1): 1090 nM
Kd (STAT2): 4880 nM
Kd (STAT3): 44.4 nM
Kd (STAT4): 804 nM
Kd (STAT5B): 11700 nM
Kd (STAT6 [2]): 11300 nM

CC(=O)N1CC[C@H]2CC[C@@H](C(=O)N[C@@H](CCC(N)=O)C(=O)NC(c3ccccc3)c3ccccc3)N2C(=O)[C@@H](NC(=O)c2cc3cc(C(F)(F)P(=O)(O)O)ccc3[nH]2)C1 [SI-109]
percent of DMSO vehicle control (PTPN11(SH2dom.C-term.)): 136.9%
remaining activity at 10 µM (SHIP2): 121%
Kd [1]: 25 ± 8.3 nM
percent of DMSO vehicle control at 10 µM [1]: 0.5 ± 0.1%
Kd (STAT1): 1270 nM
Kd (STAT2): 6630 nM
Kd (STAT3): 51.2 nM
Kd (STAT4): 1980 nM
Kd (STAT6 [2]): 3370 nM

C/C(=C\C(=O)N[C@H](C(=O)N1CCC[C@H]1C(=O)N(c1ccccc1)c1ccc(I)cc1)C(C)(C)C)c1ccc(OP(=O)(O)O)cc1 [STAT6-IN-1]
Kd (CBL): 8100 ± 1300 nM
Kd (PTPN11(SH2dom.C-term.); dose-response, read-out: KD): 1060 ± 350 nM
percent of DMSO vehicle control (PTPN11(SH2dom.C-term.)): 2.1±0.9%
Kd (SHIP2; dose-response, read-out: KD): 2030 ± 420 nM
remaining activity at 10 µM (SHIP2; primary screen, 10 μM): 6.9 ± 3.9%
Kd ([1]; dose-response, read-out: KD): 800 ± 120 nM
remaining activity at 10 µM ([1]; primary screen, 10 μM): 0%
IC50 (STAT6 [3]): 28 nM

CC(C)(C)[C@H](NC(=O)/C=C/c1ccc(OP(=O)(O)O)cc1)C(=O)N1CCC[C@H]1C(=O)N(c1ccccc1)c1ccc(I)cc1 [STAT6-IN-3]
percent of DMSO vehicle control (PTPN11(SH2dom.C-term.)): 37.9±11.0%
KD (SHIP2; dose-response): No Hit
remaining activity at 10 µM (SHIP2; primary screen, 10 μM): 36.5 ± 29.6%
Kd ([1]; dose-response, read-out: KD): 1500 ± 750 nM
remaining activity at 10 µM ([1]; primary screen, 10 μM): 2.1 ± 3.7%
IC50 (STAT6 [3]): 44 nM

O=C(COc1ccc2cc(C(=O)Nc3ccccc3)ccc2c1)NCc1ccc(OP(=O)(O)O)c(OP(=O)(O)O)c1 [Stafib-1]
percent of DMSO vehicle control (PTPN11(SH2dom.C-term.)): 99.1±12.9%
remaining activity at 10 µM ([1]; primary screen, 10 μM): 78.6 ± 15.4%
Ki (STAT6 [4]): 3470 nM
